Test results: BindingDB's records for doi:10.1002/prot.21207 (The Procter & Gamble Pharmaceuticals, 2007)
pIC50: −log10 of the molar value.

Biological target: T1, Methionine aminopeptidase (Escherichia coli (strain K12), UniProt P0AE18)
T1 sequence (P0AE18 whole entry): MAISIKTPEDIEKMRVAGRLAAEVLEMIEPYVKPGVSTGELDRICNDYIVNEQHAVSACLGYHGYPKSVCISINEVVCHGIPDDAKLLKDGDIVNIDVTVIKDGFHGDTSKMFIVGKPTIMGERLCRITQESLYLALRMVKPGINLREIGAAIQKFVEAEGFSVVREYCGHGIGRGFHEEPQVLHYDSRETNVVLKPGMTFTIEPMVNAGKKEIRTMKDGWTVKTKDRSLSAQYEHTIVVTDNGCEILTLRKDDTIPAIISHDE
Assay: EcMAP Enzyme Inhibition Assay
Details: pH 7.5; 30 °C
Experimental: The inhibitory activity of a compound toward EcMAP was measured by incubating the compound at various concentrations in the presence of the enzyme and the peptide substrate MGMM. Activity can be determined based on the amount of GMM produced or the amount of MGMM consumed. The integrated area of the tripeptide or tetrapeptide peak was compared to a calibration curve generated by running HPLC chromatograms of known concentrations of the polypeptides.

Row | pIC50 | SMILES
1 | 5.82 | COc1ccc(NN=c2c(=N)nnc2=N)cc1 [3-imino-4-[(E)-2-(4-methoxyphenyl)diazen-1-yl]-3H-pyrazol-5-amine]
2 | 5.90 | N=c1nnc(=N)c1=NNc1ccc(Cl)cc1 [4-[(E)-2-(4-chlorophenyl)diazen-1-yl]-3-imino-3H-pyrazol-5-amine]
3 | 6.26 | Cc1c(Cl)cccc1NN=c1c(=N)nnc1=N [4-[(E)-2-(3-chloro-2-methylphenyl)diazen-1-yl]-3-imino-3H-pyrazol-5-amine]
4 | 6.26 | N=c1nnc(=N)c1=NNc1cccc(F)c1 [4-[(E)-2-(3-fluorophenyl)diazen-1-yl]-3-imino-3H-pyrazol-5-amine]
5 | 5.70 | N=c1nnc(=N)c1=NNc1cccc(C(=O)O)c1O [3-[(E)-2-(5-amino-3-imino-3H-pyrazol-4-yl)diazen-1-yl]-2-hydroxybenzoic acid]
